From patent US20130259944A1, “METHODS AND COMPOSITIONS FOR TREATING CANCER WITH PLATINUM PARTICLES” (EMORY UNIVERSITY, priority 2012, published 2013)

What was measured:
[1] = system: H292 cells (EGFR-positive NSCLC); test: Intracellular platinum accumulation in H292 cells (ICP-MS); assay type: cell-based, human; conditions: 0.4 μg/mL, 24 h
Procedure: (§1) EGFR-negative H520 cells were used as negative control. […] The cell pellet was digested in 65% (v/v) nitric acid at 75° C. for 2 h. The Pt content was analyzed by ICP-MS. Cellular Pt levels were expressed in ng Pt/10^6 cells. To further check the targeting specificity of EHDDP nanoparticles in vitro, EGFR was knocked down by EGFR small interfering RNAs (siRNA). H292 cells were transfected with EGFR siRNA (sc-29301 from Santa Cruz Bio) (100 pmol) or scrambled siRNA (sc-37007 from Santa Cruz Bio) (100 pmol) as a nonspecific control according to the manufacturer's protocols. Briefly, in a 6-well tissue culture plate, 2×10^5 cells per well were seeded in 2 mL of antibiotic-free RPMI 1640 medium supplemented with 10% FBS and, on the following day, transfected with siRNAs at the final concentration of 100 pmol. […] Mouse anti-β-actin antibody (Trevigen, Gaithersburg, Md.) was used as a sample loading control. Immunostained protein bands were detected with an enhanced chemiluminescence kit (Thermo Scientific, Rockfield, Ill.). […] The data are shown as mean±SD (n=3). DDP-DNA adduct formation was measured using 1×10^7 cells per condition. […] In addition, the expression level of the phosphorylation of H2A.X was detected by Western Blot as described above using the Phospho-Histone H2A.X (Ser139) (20E3) rabbit mAb (Cell Signaling Technology, Inc.).

[2] = system: H520 cells (EGFR-negative NSCLC); test: Intracellular platinum accumulation in H520 cells (ICP-MS); assay type: cell-based, human; conditions: 24 h
Procedure: as §1

H292 cells [3] = test: SRB cytotoxicity assay; assay type: cell-based, human; conditions: 96 h
Procedure: H292 and H520 cells maintained in medium with 2% FBS were seeded in 96-well plates at a density of 5000 cells/well overnight prior to drug treatment. […] Cells were fixed for 1 h with 10% cold trichloroacetic acid. Plates were washed five times in water, air-dried, and then stained with 0.4% SRB for 10 min. […] Plates were read in a microplate reader by measuring absorbance at 492 nm. The percent survival was then calculated based upon the absorbance values relative to untreated samples. The experiment was repeated three times.

H292 cells [4] = test: Pt-DNA adduct formation in vitro (ICP-MS of purified DNA); assay type: cell-based, human; conditions: 37° C., 24 h
Procedure: as §1

[5] = Concentration profile of Pt in mice peripheral blood; assay type: in vivo, nude mice; conditions: for Pt concentration in blood: Pt 2.5 mg/kg
Procedure: The whole blood samples were dissolved in 65% (v/v) nitric acid at 75° C. for 2 h, and Pt concentration was measured by ICP-MS.

[6] = Biodistribution of Pt in organs and tumor of H292 tumor-bearing mice; assay type: in vivo, nude mice
Procedure: (§2) Blood, organs (liver, spleen, kidney, and lung), and tumor tissue were harvested, half of the organs were dissolved in 65% (v/v) nitric acid at 75° C. for 2 h, and Pt concentrations were measured by ICP-MS. The blood and other half of the organs were used to extract DNA, and the Pt concentration in DNA was quantified as described above.

[7] = Pt-DNA adducts in kidney and tumor in vivo; design: species or system nude mice; conditions: single iv dose Pt 2.5 mg/kg
Procedure: as §2

With `N.N.[Cl][Pt][Cl]` [DDP, cis-diamminedichloroplatinum(II)] the “intracellular Pt level” value [1] was 2.49±0.39 ng Pt/10^6 cells, the “intracellular Pt accumulation” value [2] was 3.38±0.42 ng Pt/10^6 cells and the “IC50 (Pt concentration)” value (H292 cells [3]) was 2.12 ± 0.20 µg/mL. For the same compound, the “Pt level associated with cellular DNA (Pt-DNA adducts)” value (H292 cells [4]) was 19.68±4.35 pg Pt/μg DNA, the “Pt concentration in blood” value ([5]; 30 min after iv injection) was 1.17±0.12 ng/mg blood and the “Pt concentration in blood” value ([5]; 8 h after iv injection) was 0.36±0.09 ng/mg blood. For the same compound, the “time of elimination by the renal system” value ([5]; discussion statement) was < 5 min, the “tumor Pt level” value ([6]; 10 min after iv injection) was 3.58±0.91 ng/mg dry tissue and the “Pt concentration in kidney” value ([6]; 10 min after systemic administration) was 35.25±5.70 ng/mg dry tissue. The “Pt concentration in kidney” value ([6]; 4 h) was 11.9±0.79 ng/mg dry tissue, the “accumulation of Pt in the liver” value ([6]; 4 h, single iv dose Pt 2.5 mg/kg) was 7.71±1.61 ng/mg dry tissue and the “Pt concentration in kidney” value ([6]; 24 h) was 6.39±0.67 ng/mg dry tissue. For the same compound, the “tumor Pt level” value ([6]; 24 h after iv injection) was 1.48±0.52 ng/mg dry tissue, the “decrease of Pt concentration in the liver” value ([6]; 24 h compared with 4 h) was 20% and the “Pt concentrations in the liver, spleen and kidney, comparison between treatments” value ([6]; 28 days after treatment) was “no differences”. The “decrease of Pt accumulation in the liver” value ([6]; from 10 min to 4 h) was 42.5%, the “decrease of Pt accumulation in the spleen” value ([6]; from 10 min to 4 h) was 82.86% and the “decrease in Pt accumulation in the kidney” value ([6]; within 4 h) was 65.1%. For the same compound, the “Pt concentration in DNA purified from kidney” value ([7]; 4 h) was 71.78±9.02 pg/μg DNA, the “Pt-DNA adducts in NSCLC xenograft tumors” value ([7]; 4 h) was 92.21±8.96 pg/μg DNA and the “Pt concentration in DNA purified from kidney” value ([7]; 24 h) was 25.72±2.78 pg/μg DNA. For the same compound, the “Pt-DNA adducts in NSCLC xenograft tumors” value ([7]; 24 h) was 94.68±15.01 pg/μg DNA.
